Source: patent publication EP2573108A1, “Methods for identifying compounds capable of inhibiting degradation of PKM zeta” (SYGNIS Bioscience GmbH & Co KG, priority 2011, dated 2013)
Read-outs that look alike come from different tables or passages of the source. Where a SMILES comes first, the peptide text is derived from it. The star is where a group is joined. Cbz = O=C(OCc1ccccc1)*

How the values were obtained:
KIBRA- PKM zeta complex = settings: for displacement of KIBRA from a pre-formed complex with PKM zeta: COS lysates, Fig. 4f
Protocol: (§1) Starting from aa 882, increasing 20aa stretches of KIBRA were deleted and constructs were tested for interaction with FLAG-tagged PKM zeta. […] PKM zeta-flag expression constructs were co-transfected with EGFP-fusion constructs containing the 956-975 PKM zeta binding motif. Amino acids from position 964 to 974 were mutated to Alanin. […] Increasing concentrations of the peptide were added to COS-lysates co-expressing KIBRA and FLAG- PKM zeta before pull-down with anti-FLAG beads. […] The C-terminal serine residues that can be phosphorylated by PKM zeta in vitro were mutated to alanine or glutamate. […] Neurons were infected with a KIBRA-EGFP fusion constructs.
(§2) Co-immunoprecipitation. 2d after electroporation, cells were washed twice with ice-cold 1xPBS, and lyesd (50 mM Tris/HCl pH 7.4, 150 mM NaCl, 0.5% NP40, 20 mM NaF, 2 mM EDTA, 2 mM EGTA, 2 mM orthovanadate, protease inhibitor cocktail) at 4°C. Lysate was incubated with anti-flag beads (Sigma) at 4 °C for 2h, 5µl of peptide solution was added as indicated. Protein was released by 1x SDS loading buffer (without reducing reagents) (95 °C for 5min).
(§3) In more detail, 2d after electroporation, COS cells were washed twice with ice-cold IxPBS, and protein extraction was carried out by lysis of cells with lysis-buffer (50 mM Tris/HCl pH 7.4, 150 mM NaCl, 0.5% NP40, 20 mM NaF, 2 mM EDTA, 2 mM EGTA, 2 mM orthovanadate, protease inhibitor cocktail) at 4 °C. After incubation for 20 min at 4°C, the lysate was spun down at 13500 rpm at 4 °C for 10 min. One part of the supernatant was kept for direct Western analysis (lysate).

PKM zeta [1] = settings: PKM zeta expressed in COS cells, Fig. 4e
Protocol: as §1, §2, §3

PKM zeta [2] = assay: PKM zeta protein stability after translation block with cycloheximide (Western blot), COS cells; assay type: cell-based; settings: up to 48 h
Protocol: Electroporation of COS1 cells. COS1 cells were cultured in Dulbecco's modified eagle medium (DMEM) high glucose supplemented with 10% fetal calf serum (FCS). Cells were transfected with appropriate plasmids as indicated in the result section. For electroporation, COS-1 cells were harvested and resuspended in electroporation (EP)-buffer (50 mM K2HPO4, 20 mM CH3COOK, 20 mM KOH, pH 7.4) at a densitiy of 3.5x10^6 cells per transfection. After addition of 25 mM MgSO4, cells were mixed with 10 µg of plasmid-DNA (ratio of pulled down plasmid to co-expressed plasmid was 1:4; pure co-expression of two plasmids was performed in a ratio of 1:2) and transferred to an electroporation cuvette. Electroporation was performed in a Biorad Gene Pulsar II electroporator at 500 µF capacitance and 230 V, and cells were transferred into DMEM supplemented with 10% FCS and plated immediately. 48 h after transfection, cells were harvested for Co-IP. To perform western blot analysis, cells were stimulated 24 h after transfection for the indicated time points with cycloheximide and MG-132, respectively.
Western blotting. […] After syringing the lysate 5x, lysate was spun down at 13000 rpm at 4 °C for 10 min and the protein concentration of the supernate was determined (BCA-Test, Pierce). […] For quantification of scanned autoradiographs Windows ImageJ (NIH, Bethesda, MD,USA) was used.

PKM zeta [3] = assay: PKM zeta protein stability after translation block with cycloheximide (Western blot), SHSY-5Y cells; assay type: cell-based
Protocol: Western blotting. […] Lysates were frozen in liquid nitrogen and stored afterwards at -20°C. After syringing the lysate 5x, lysate was spun down at 13000 rpm at 4 °C for 10 min and the protein concentration of the supernate was determined (BCA-Test, Pierce). 1/5 volume of 5x sample-buffer (with β-Mercaptoethanol) was added and samples were denatured at 95 °C for 5 min. 50 µg of protein was run on a SDS-PAGE and proteins were transferred to nitrocellulose membranes using an iBlot™ Dry Blotting System (Invitrogen, Karlsruhe, Germany). […] For quantification of scanned autoradiographs Windows ImageJ (NIH, Bethesda, MD,USA) was used.

| Compound | displacement of KIBRA from a pre-formed complex with PKM zeta (KIBRA- PKM zeta complex) | displacement of KIBRA from a pre-formed complex with PKM zeta (KIBRA- PKM zeta complex; listed as aa 948-978) | IC50 (KIBRA- PKM zeta complex; increasing concentrations of peptide added to COS-lysates co-expressing KIBRA and FLAG-PKM zeta before pull-down with anti-FLAG beads, estimated) [nM] | binding to PKM zeta (PKM zeta [1]; listed as aa 948-978) | binding to PKM zeta (PKM zeta [1]; listed as synthetic biotin-labeled peptide) | PKM zeta levels after CHX (PKM zeta [2]) | PKM zeta levels after CHX (PKM zeta [3]) |
| --- | --- | --- | --- | --- | --- | --- | --- |
| DSSTLSKKPPFVRNSLERRSVRMKRPSSVKS [synthetic peptide 948-978] | able to disrupt a preformed KIBRA- PKM zeta complex | able to displace KIBRA from a pre-formed complex with PKM zeta in a concentration-dependent manner | ~60 | sufficient for binding | able to bind PKM zeta | – | – |
| CC(C)C[C@@H](C=O)NC(=O)[C@H](CC(C)C)NC(=O)[C@H](CC(C)C)NC(=O)OCc1ccccc1 [MG132] (Cbz-Leu-Leu-Leu-aldehyde) | – | – | – | – | – | prevented the time-dependent decrease in kinase levels | prevented the time-dependent decrease in kinase levels |
